Assay results as given in patent publication US8461358B2, “Fluorescent probe for measuring protease” (The University of Tokyo, priority 2009, dated 2013).

Biological target: T1, leucine aminopeptidase, LAP (Sus scrofa, UniProt P15145)
T1 construct: purchased SIGMA L5006-25UN; host or cells: porcine kidney (tissue-derived)
T1 sequence (P15145 1-963): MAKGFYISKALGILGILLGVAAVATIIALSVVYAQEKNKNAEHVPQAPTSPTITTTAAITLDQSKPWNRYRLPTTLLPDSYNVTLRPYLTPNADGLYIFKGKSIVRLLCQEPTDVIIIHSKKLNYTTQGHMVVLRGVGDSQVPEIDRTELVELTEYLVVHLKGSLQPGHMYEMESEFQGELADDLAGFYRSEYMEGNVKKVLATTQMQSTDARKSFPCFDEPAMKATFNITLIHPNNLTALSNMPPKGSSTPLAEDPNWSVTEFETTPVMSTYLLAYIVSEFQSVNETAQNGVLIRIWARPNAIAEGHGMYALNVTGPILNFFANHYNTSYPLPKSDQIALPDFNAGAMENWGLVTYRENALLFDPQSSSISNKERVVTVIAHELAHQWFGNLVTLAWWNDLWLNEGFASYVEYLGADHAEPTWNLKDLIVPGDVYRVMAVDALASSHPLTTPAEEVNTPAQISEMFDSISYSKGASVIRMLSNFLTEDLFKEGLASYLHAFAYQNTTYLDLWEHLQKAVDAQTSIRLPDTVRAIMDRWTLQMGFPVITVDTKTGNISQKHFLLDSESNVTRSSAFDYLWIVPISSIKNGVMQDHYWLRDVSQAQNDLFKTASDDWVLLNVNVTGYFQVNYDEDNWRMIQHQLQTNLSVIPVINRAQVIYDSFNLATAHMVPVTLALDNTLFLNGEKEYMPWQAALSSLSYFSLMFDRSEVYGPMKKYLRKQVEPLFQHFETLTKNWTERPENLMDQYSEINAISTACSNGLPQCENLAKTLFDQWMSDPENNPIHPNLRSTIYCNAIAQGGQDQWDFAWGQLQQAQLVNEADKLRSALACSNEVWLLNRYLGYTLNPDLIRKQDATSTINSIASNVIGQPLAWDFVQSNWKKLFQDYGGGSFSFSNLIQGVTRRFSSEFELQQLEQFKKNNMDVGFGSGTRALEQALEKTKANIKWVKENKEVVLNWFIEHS
Experiment: Enzymatic reaction of probe with leucine aminopeptidase, fluorescence/absorption readout
Type: biochemical, porcine
Details: 5 μM compound
Description: Compound (2) (Leu-RhoHM) and Compound (3) (γGlu-RhoHM) formed by bonding acyl residues derived from leucine and glutamic acid to one amino group of Compound (1) (RhoHM), respectively, were each dissolved in a neutral phosphate buffer, and reacted with a protease (leucine aminopeptidase, LAP, porcine kidney, SIGMA L5006-25UN) and γ-glutamyl transpeptidase (GGT, equine kidney, SIGMA G9270-100UN). Specifically, 3 μL of a […] solution of each compound in dimethyl sulfoxide (DMSO) was dissolved in 3 mL of a 0.1 M sodium phosphate buffer (pH 7.4) at a final concentration of 5 μM, and each of LAP (0.15 U) and GGT (1.1 U) was added to the solution to allow an enzymatic reaction at 37° C. The excitation wavelength was 501 nm.
Further, each of the DMSO solutions of both compounds (5 mM) in a volume of 3 μL was dissolved in 3 mL of a 0.1 M sodium phosphate buffer (pH 7.4) at a final concentration of 5 μM, and the enzymatic reaction was performed at 37° C. The values of fluorescence intensity observed with each amount of the enzymes 1 minute (Leu-RhoHM) or 9 minutes (γGlu-RhoHM) after the addition of the enzyme were plotted. The excitation wavelength was 501 nm, and the fluorescence emission wavelength was 524 nm.
Enzyme specificity of Compounds (2) and (3) was examined. Each of the DMSO solutions (3 μL) was dissolved in 3 mL of a 0.1 M sodium phosphate buffer (pH 7.4) at a final concentration of 5 μM, and LAP (0.4 U) was added to the solution to perform the enzymatic reaction at 37° C.

CC(C)C[C@H](N)C(=O)Nc1ccc2c(c1)Oc1cc(N)ccc1C21OCc2ccccc21 (stereo partly drawn) [Compound (2)]
change of absorption and fluorescence intensity on reaction with LAP (0.1 M sodium phosphate buffer pH 7.4, LAP 0.15 U, 37° C., excitation 501 nm): prompt marked increase of absorption and fluorescence intensity | change of fluorescence intensity after reaction with LAP (enzyme specificity) (0.1 M sodium phosphate buffer pH 7.4, LAP 0.4 U, 37° C.): marked increase of fluorescence intensity | fluorescence intensity versus added LAP amount (pH 7.4, 37° C., 1 minute after addition of the enzyme, excitation 501 nm, emission 524 nm): linear increase of fluorescence intensity
